What was measured:
rat mammary tumor (RMT) = test: FDG uptake after IP injection in tumor bearing rats; type: in vivo
Excerpt: After having established the anti-glycolytic effect of 3-bromopyruvate in vitro, we designed a series of experiments to confirm this property in vivo. For this purpose, two different animal models, the Lewis rat mammary tumor model and the orthotopic VX2 rabbit liver cancer model were used. Since glucose uptake can be monitored using fluorine-labeled deoxyglucose (FDG), potential sites of decreased FDG uptake as a result of 3-bromopyruvate activity could be identified. The effects of intraperitonealy (IP) injected 3-bromopyruvate in non-tumor bearing rats were compared to those in tumor bearing rats. The tumors were derived from the rat mammary tumor (RMT) cell line and transplanted into the back adipose tissue of the rat and allowed to grow for 10 days. After having determined the maximum tolerated dose, all animals received two bolus doses (one hour apart) of 3-bromopyruvate injected IP. The FDG was injected 30 minutes after the first injection of 3-bromopyruvate and all animals were sacrificed 60 minutes after the FDG was injected. The tumors and all major organs were removed, weighed and analyzed in a gamma counter. […]

[1] = tested on: mitochondrial respiration of VX2 tumor mitochondria; test: Mitochondrial respiration (oxygen consumption, Clark electrode); type: biochemical, rabbit; details: 1.2 mM; basal (succinate) and ADP stimulated rate
Procedure: The freshly isolated liver or VX2 tumor tissues (15-20 g wet weight) was rinsed in 3 volumes of H-medium (210 mM D-mannitol, 70 mM sucrose, 2 mM Hepes, and 0.05% bovine albumin, pH 7.4) at 4° C. and minced with a razor blade as finely as possible. A 30% (V/V) suspension was made using ice-cold H-medium in a Potter-Elvehjem glass homogenizer (55 ml capacity), and homogenization was achieved by applying 4 complete up and down strokes through the suspension with a rotating (˜400 rpm), serrated, teflon pestle attached to a motor. To remove cell debris and nuclei, the resultant homogenate was diluted to twice the initial volume and centrifuged at 630×g for 8 minutes at 4° C. in a Sorvall RC-2B centrifuge using a GSA rotor. The supernatant was removed and then centrifuged at 6,800 g for 15 min under the same conditions. The resultant supernatant was saved and referred to here as the cytosolic faction. […]
Oxygen consumption rates were measured polarographically using a Clark oxygen electrode inserted into a 2.5 ml chamber equipped with a magnetic stirrer. […] The loss of oxygen was monitored in a 2.1 ml system at 25° C. containing 1 mg mitochondria, 0.5 mM EDTA, 2.0 mM Hepes, 220 mM D-mannitol, 70 mM sucrose, 2.5 mM KPi, 2.6 mM MgCl2, and 0.5 mg/ml bovine albumin, and, where indicated, 7.8 mM succinate (respiratory substrate), and 0.24 mM ADP (ATP synthesis substrate). […]

HepG2 [2] = test: Cell viability, HepG2; type: cell-based, human; details: 1 mM for 3 hour
Procedure: (§1) Caspase-3 activity and reduced cell viability was also measured in cell lines (HepG2, THLE-2, and VX2 cell lines) following 3-bromopyruvate treatment (1 mM for 3 hour) (FIG. 6A). Caspase-3 activity increased in each cell line following treatment and cell viability decreased following treatment. An increase in caspase-3 activity indicated the mechanism of cell death is apoptotic. FIGS. 6 B and C show cell viability is reduced in each cell line with increasing 3-bromopyruvate concentration after 1 and 3 hours of treatment.

THLE-2 [3] = test: Cell viability, THLE-2; type: cell-based; details: 1 mM for 3 hour
Procedure: as §1

HepG2 [4] = test: ATP levels after treatment, HepG2; type: cell-based, human; details: 0.1, 0.2, 0.3 mM for 1 and 3 hours
Procedure: (§2) ATP levels were measured in various cell lines, e.g., HepG2, Sk-Hep1, and Vx-2 after 3-bromopyruvate treatment. In each case, cells were treated with increasing concentration of 3-bromopyruvate (0.1 mM, 0.2 mM, and 0.3 mM) for 1 and 3 hours before measuring ATP levels in the cell. FIGS. 5 (A-C) show the ATP depletion observed following 3-bromopyruvate treatment in HepG2, Sk-Hep1, and Vx-2 cell lines, respectively.

THLE-2 [5] = test: Caspase-3 activity, THLE-2; type: cell-based; details: 1 mM for 3 hour
Procedure: as §1

VX2 tumor = test: PET/CT imaging and histopathology after 1-hour intraarterial infusion; type: in vivo, rabbit
Procedure: To further confirm the tumor destruction using 3-bromopyruvate, Positron Emission Tomography (PET)/CT imaging was conducted in rabbits before and after a single 1-hour intraarterial (infusion) therapy with 3-bromopyruvate. […] Since 3-bromopyruvate acts extremely quickly, PET/CT images were obtained within 2 hours of therapy to examine the process of making a decision regarding immediate re-treatment. After the PET/CT images were obtained, the 2 rabbits were sacrificed, their liver explanted and submitted for histopathologic analysis. Various staining methods that the tumor was completely (100%) dead and that the mechanism of cell death was apoptotic, thus confirming the use of PET imaging in assessing tumor response.

Vx-2 = test: ATP levels after treatment, Vx-2; type: cell-based, rabbit; details: 0.1, 0.2, 0.3 mM for 1 and 3 hours
Procedure: as §2

Sk-Hep1 = test: ATP levels after treatment, Sk-Hep1; type: cell-based; details: 0.1, 0.2, 0.3 mM for 1 and 3 hours
Procedure: as §2

O=C(O)C(=O)CBr [3-bromopyruvate]
FDG uptake in all other organs (rat mammary tumor (RMT); two IP bolus doses): unaffected | decrease in FDG uptake in the tumor (rat mammary tumor (RMT); two IP bolus doses one hour apart): 50% | inhibition of mitochondrial respiration [1]: completely inhibits | cell viability (HepG2 [2]): decreased | cell viability (THLE-2 [3]): decreased | ATP levels (HepG2 [4]): ATP depletion | Caspase-3 activity (THLE-2 [5]): increased | tumor activity on post-treatment PET/CT scans (VX2 tumor; 2 hours after single 1-hour intraarterial infusion): complete disappearance of tumor activity | tumor death by histopathology (VX2 tumor; after single 1-hour intraarterial infusion): 100% | mechanism of cell death (VX2 tumor; histopathologic staining): apoptotic | ATP levels (Vx-2): ATP depletion | ATP levels (Sk-Hep1): ATP depletion

Reference: US20100203110A1, “Therapeutics for Cancer Using 3-Bromopyruvate and Other Selective Inhibitors of ATP Production” (The Johns Hopkins University, priority 2006, published 2010)
